Peptide text beside a SMILES is read from it. * marks the point of attachment. 5TAMRA = CN(C)c1ccc2c(c1)Oc1cc(N(C)C)ccc1C21OC(=O)c2cc(C(=O)*)ccc21
Legend:
[1] = Peptide stability in serum-containing cell media; assay type: in vitro ADME, bovine; settings: differentiation medium with 10% FBS, 37 °C, 100 µM peptide, urea/TCA-acetone protein precipitation, UPLC C18, UV 214 and 498 nm, mean ± SD, N = 2
Method: Samples (20 µL) were withdrawn at 0, 15, 30, 60, 120, 180, and 240 min. At room temperature, 50 µL of 6 M urea was added for 10 min to denature plasma proteins. To precipitate plasma proteins, 50 µL of 20% (w/v) trichloroacetic acid in acetone was added and the sample incubated at −20 °C for 10 min. The samples were spun down at 10,000× g for 5 min at 5 °C. The acetone phase containing the TAMRA-peptides was filtered (pore size 0.22 µm) prior to analysis by UPLC using a Waters Acquity system with a C18 BEH reverse phase column (BEH C18 column, 2.1 mm × 50 mm × 1.7 µm). Mobile phase A consisted of 95% ultrapure water and 5% acetonitrile (ACN) with 0.1% trifluoroacetic acid (TFA) and mobile phase B of 95% ACN and 5% ultrapure water with 0.1% TFA. A linear gradient was used (min/%B): 0/5%, 12/45%, 12.1/100%, 13/100%, 13.1/5%, 15/5%, with a flow rate of 0.45 mL/min over 15 min with UV detection at 214 and 498 nm. Lower limits of detection are 6.2 µM for TAMRA-NR2B9c, 0.8 µM for TAMRA-Tat, 1.6 µM for TAMRA-Tat-NR2B9c, and 1.6 µM for TAMRA-Tat-N-dimer.

[2] = test system: monocultures of primary bovine BCECs; test: Live cell peptide uptake; assay type: cell-based; settings: 1 h, 37 °C, live cell imaging; 100 µM TAMRA-NR2B9c, 50 µM Tat peptides (method) / 100 µM (Figure 4 legend)
Method: BCECs were obtained from a batch of isolated capillary fragments and cultured as described in Section 2.2. Following trypsinization on day 5, the BCECs were re-suspended in differentiation medium and 90,000/cm^2 seeded on collagen- and fibronectin-coated (both 10 µg/mL in PBS) LabTek® microscope slides (Merck, Søborg, Denmark). The cells were left in the incubator (10% CO2, 37 °C) for 48 h prior to use. […] The test solutions were removed and pre-warmed media containing 300 nM Hoechst and Lysotracker® (1:20,000; Thermo Fischer Scientific, Bedford, MA, USA) applied to the cells for 10 min at 37 °C. The cells were gently washed twice in 37 °C hHBSS and immediately imaged in FluoBrite medium (Thermo Fischer Scientific, Bedford, MA, USA). Images were captured using an Olympus IX-83 fluorescent microscope (Olympus, Hamburg, Germany) equipped with a Yokogawa CSU-X spinning disc unit (Yokogawa, Tokyo, Japan) and Andor iXon Ultra 897 camera (Oxford Instruments, Abingdon, Great Britain) using cellSens software (Olympus, Hamburg, Germany).

[3] = test system: bovine BCEC monolayers co-cultured with rat astrocytes; test: Barrier integrity by transendothelial electrical resistance (TEER); assay type: cell-based; settings: 3 h, bovine BBB model; for barrier integrity (TEER before and after peptide application): 100 µM peptide, 37 °C, N = 3, n = 3
Method: Transport across bovine or mouse BCEC monolayers co-cultured with rat astrocytes was carried out over 3 h at 37 °C with horizontal shaking (90 rpm). TEER was measured at room temperature using an Endohm 12 cup (World Precision Instruments, Sarasota, FL, USA) connected to a Millicell-ERS device (Millipore, Bedford, MA, USA). TEER was measured before application of the peptides and after each experiment. The bovine model had initial TEER values ranging from 771 to 1332 Ω·cm^2, whereas the mouse model had initial TEER values ranging from 136 to 217 Ω·cm^2.

CC[C@H](C)[C@H](NC(=O)[C@H](CO)NC(=O)[C@H](CO)NC(=O)[C@H](CC(C)C)NC(=O)[C@H](CCCCN)NC(=O)c1ccc2c(c1)C(=O)OC21c2ccc(N(C)C)cc2Oc2cc(N(C)C)ccc21)C(=O)N[C@@H](CCC(=O)O)C(=O)N[C@@H](CO)C(=O)N[C@@H](CC(=O)O)C(=O)N[C@H](C(=O)O)C(C)C [TAMRA-NR2B9c] (5TAMRA-KLSSIESDV-OH)
% of the initial concentration remaining after 4 h of incubation in serum-supplemented cell media [1]: 92.0% ± 12.6%
peptide uptake into live BCECs [2]: No uptake
barrier integrity (TEER before and after peptide application) [3]: did not affect the barrier integrity

CC[C@H](C)[C@H](NC(=O)CCOCCOCCN(CCOCCOCCC(=O)N[C@H](C(=O)N[C@@H](CCC(=O)O)C(=O)N[C@H](C(=O)N[C@@H](CC(=O)O)C(=O)N[C@H](C(=O)O)C(C)C)[C@@H](C)O)[C@@H](C)CC)C(=O)[C@H](CCCNC(=N)N)NC(=O)[C@H](CCCNC(=N)N)NC(=O)[C@H](CCCNC(=N)N)NC(=O)[C@H](CCC(N)=O)NC(=O)[C@H](CCCNC(=N)N)NC(=O)[C@H](CCCNC(=N)N)NC(=O)[C@H](CCCCN)NC(=O)[C@H](CCCCN)NC(=O)[C@H](CCCNC(=N)N)NC(=O)CNC(=O)[C@H](Cc1ccc(O)cc1)NC(=O)c1ccc2c(c1)C(=O)OC21c2ccc(N(C)C)cc2Oc2cc(N(C)C)ccc21)C(=O)N[C@@H](CCC(=O)O)C(=O)N[C@H](C(=O)N[C@@H](CC(=O)O)C(=O)N[C@H](C(=O)O)C(C)C)[C@@H](C)O [TAMRA-Tat-N-dimer]
% of the initial concentration remaining after 4 h of incubation in serum-supplemented cell media [1]: 88.1% ± 1.8%
peptide uptake into live BCECs [2]: taken up into vesicular structures to a similar extent
barrier integrity (TEER before and after peptide application) [3]: did not affect the barrier integrity
barrier integrity (TEER) upon co-application of FITC-dextran with peptide ([3]; 1 mg/mL FITC-dextran with 100 µM peptide): did not affect barrier integrity

CC[C@H](C)[C@H](NC(=O)[C@H](CO)NC(=O)[C@H](CO)NC(=O)[C@H](CC(C)C)NC(=O)[C@H](CCCCN)NC(=O)[C@H](CCCNC(=N)N)NC(=O)[C@H](CCCNC(=N)N)NC(=O)[C@H](CCCNC(=N)N)NC(=O)[C@H](CCC(N)=O)NC(=O)[C@H](CCCNC(=N)N)NC(=O)[C@H](CCCNC(=N)N)NC(=O)[C@H](CCCCN)NC(=O)[C@H](CCCCN)NC(=O)[C@H](CCCNC(=N)N)NC(=O)CNC(=O)[C@H](Cc1ccc(O)cc1)NC(=O)c1ccc2c(c1)C(=O)OC21c2ccc(N(C)C)cc2Oc2cc(N(C)C)ccc21)C(=O)N[C@@H](CCC(=O)O)C(=O)N[C@@H](CO)C(=O)N[C@@H](CC(=O)O)C(=O)N[C@H](C(=O)O)C(C)C [TAMRA-Tat-NR2B9c] (5TAMRA-YGRKKRRQRRRKLSSIESDV-OH)
% of the initial concentration remaining after 4 h of incubation in serum-supplemented cell media [1]: 34.3% ± 1.7%
peptide uptake into live BCECs [2]: taken up into vesicular structures to a similar extent
barrier integrity (TEER before and after peptide application) [3]: significant decrease in TEER

CN(C)c1ccc2c(c1)Oc1cc(N(C)C)ccc1C21OC(=O)c2cc(C(=O)N[C@@H](Cc3ccc(O)cc3)C(=O)NCC(=O)N[C@@H](CCCNC(=N)N)C(=O)N[C@@H](CCCCN)C(=O)N[C@@H](CCCCN)C(=O)N[C@@H](CCCNC(=N)N)C(=O)N[C@@H](CCCNC(=N)N)C(=O)N[C@@H](CCC(N)=O)C(=O)N[C@@H](CCCNC(=N)N)C(=O)N[C@@H](CCCNC(=N)N)C(=O)N[C@@H](CCCNC(=N)N)C(=O)O)ccc21 [TAMRA-Tat]
% of the initial concentration remaining after 4 h of incubation in serum-supplemented cell media [1]: 56.0% ± 8.9%
peptide uptake into live BCECs [2]: taken up into vesicular structures to a similar extent
barrier integrity (TEER before and after peptide application) [3]: significant decrease in TEER

Source: publication PMC7408072 (Pharmaceutics, 2020)
